In patent US4605641A, “Synthetic vasoactive intestinal peptide analogs” (Hoffmann-La Roche Inc., priority 1984, dated 1986):

Legend:
[1] = system: guinea pig trachea smooth muscle; test: Bronchodilator (relaxant) effect on isolated guinea pig tracheal rings; assay type: cell-based; conditions: for Relative Potency: guinea pig trachea, relative to VIP = 100%; for EC50: guinea pig tracheal rings, relaxation as % of maximum response to VIP 10^-6 M, three tissues pooled, linear regression, read-out: EC50 (M), agonist activity, bronchodilator effect
Description: The bronchodilatory effect of VIP analogs was studied in a model utilizing guinea pig trachea. Wasserman, M. A. et al. "Comparative In Vitro Tracheal Relaxant Effects of Porcine and Hen VIP" in Vasoactive Intestinal Peptide ed. Said, S.I., Raven Press (New York, 1982).
All tissues were taken from male albino guinea pigs weighing 400-600 g, anesthetized with urethane 2 g/kg i.p. After exsanguination the trachea was removed and divided into four ring segments (3 mm length). Each ring was suspended by two 30 guage stainless steel wires in a 10 ml jacket tissue bath and attached via 4-0 silk thread to a Grass force displacement transducer (model FT03C, Grass Instrument Co., Quincy, MA), for isometric recording of tension. The smooth muscle was bathed in modified Krebs solution of the following composition: NaCl, 120 mM; KCl, 4.7 mM; CaCl2, 2.5 mM; MgSO4.7H2 O; 1.2 mM; NaHCO3, 25 mM; KH2 PO4 monobasic, 1.2 mM; and dextrose, 10 mM. Tissue baths were maintained at 37.5° C. and constantly bubbled with 95% O2 and 5% CO2. Responses were recorded on an 8 channel and 4 channel Hewlett-Packard (model 7702B and 7754A, respectively) recorder (Hewlett Packard, Paramus, NJ). Tracheal rings were placed under a resting tension of 1.5 g which was determined to be at or near optimal in preliminary experiments. Frequent readjustments of tension were required during the 60 min. stabilization period which followed. Tissues were rinsed at 15 min. intervals.
(§1) Cumulative concentration response curves were obtained for each tissue by successive […] in the bath concentration of VIP or potential VIP agonists according to the method of VanRossum J. M., Arch. Int Pharmacodyn, 143, 299-330 (1963). Only one cummulative dose response curve was obtained on a single piece of tissue. To minimize variability between tissues, relaxant responses are expressed as a percentage of the maximum response obtainable to VIP (10^-6 M=100%) added at the end of the concentration response curve. Responses obtained from three tissues were pooled and EC50 values were determined by linear regression.

[2] = system: Human Bronchial Smooth Muscle; test: Relaxation of isolated human bronchial smooth muscle rings; assay type: cell-based; conditions: for Rel. Potency: human bronchial smooth muscle, relative to VIP (1-28) = 100%
Experimental: Human bronchial smooth muscle or intra-pulmonary arteries were obtained from surgical section or autopsy from Overlook Hospital, Summit, N.J. Airway or vascular rings were suspended by two 30 gauge stainless steel wires in a 10 ml jacket tissue bath and attached via 4-0 silk thread to a Grass forcer displacement transducer (model FT030C, Grass Instrument Co., Quincy, MA), for isometric recording of tension. The smooth muscle was bathed in modified Kreb's solution of the following composition: NaCl, 120 mM; KCl, 4.7 mM; CaCL2, 2.5 mM; MgSO4.7H2 O; 1.2 mM; NaHCO3, 25 mM; KH2 PO4 monobasic, 1.2 mM; and dextrose, 10 mM. Tissue baths were maintained at 37.5° C. and constantly bubbled with 95% O2 and 5% CO2. Responses were recorded on a 8 channel and 4 channel Hewlett-Packard (model 7702B and 7754A, respectively) recorder (Hewlett Packard, Paramus, NJ). All tissues were placed under a resting tension (airway, 1.5 g; vascular, 1 g) which was determined to be near optimal in preliminary experiments. Frequent readjustments of tension were required during the 120-180 min. stabilization period which followed. Tissues were rinsed at 15 min. intervals. Vascular tissues were primed once with phenylephrine (10^-5 M) and washed for an additional hour. Steady state contractions of vacular tissues were obtained with phenylephrine (10^-5 M) while airway tissues were precontracted with histamine (3×10^-4 M).
as §1, with “noted above.” for “J. M., Arch. Int Pharmacodyn, 143, 299-330 (1963).”, “cumulative” for “cummulative”, “were” for “are”, “papaverine (vascular, 10^-4 M=100%) or isoproterenol (airway, 10^-4” for “VIP (10^-6”, “curve. […]” for “curve.”, “four” for “three”

SMILES	Relative Potency [1] [%]	EC50 [1] [M]	Rel. Potency [2] [%]	Bronchodilator / relaxant activity (in words) ([2]; human in vitro tissue, summary of Table II)
CCCC[C@H](NC(=O)[C@H](CCC(N)=O)NC(=O)[C@H](CCCCN)NC(=O)[C@H](CCCNC(=N)N)NC(=O)[C@H](CC(C)C)NC(=O)[C@H](CCCNC(=N)N)NC(=O)[C@@H](NC(=O)[C@H](Cc1ccc(O)cc1)NC(=O)[C@H](CC(N)=O)NC(=O)[C@H](CC(=O)O)NC(=O)[C@@H](NC(=O)[C@H](Cc1ccccc1)NC(=O)[C@@H](NC(=O)[C@H](C)NC(=O)[C@H](CC(=O)O)NC(=O)[C@H](CO)NC(=O)[C@H](Cc1c[nH]cn1)NC(C)=O)C(C)C)[C@@H](C)O)[C@@H](C)O)C(=O)N[C@@H](C)C(=O)N[C@H](C(=O)N[C@@H](CCCCN)C(=O)N[C@@H](CCCCN)C(=O)N[C@@H](Cc1ccc(O)cc1)C(=O)N[C@@H](CC(C)C)C(=O)N[C@@H](CC(N)=O)C(=O)N[C@@H](CO)C(=O)N[C@H](C(=O)N[C@@H](CC(C)C)C(=O)N[C@@H](CC(N)=O)C(N)=O)[C@@H](C)CC)C(C)C [Ac--(Nle^17)--VIP, Ac-(Nle^17)VIP]	111	9e-09	2800	
CC[C@H](C)[C@H](NC(=O)[C@H](CO)NC(=O)[C@H](CC(N)=O)NC(=O)[C@H](CC(C)C)NC(=O)[C@H](Cc1ccc(O)cc1)NC(=O)[C@H](CCCCN)NC(=O)[C@H](CCCCN)NC(=O)[C@@H](NC(=O)[C@H](C)NC(=O)[C@H](CCSC)NC(=O)[C@H](CCC(N)=O)NC(=O)[C@H](CCCCN)NC(=O)[C@H](CCCNC(=N)N)NC(=O)[C@H](CC(C)C)NC(=O)[C@H](CCCNC(=N)N)NC(=O)[C@@H](NC(=O)[C@H](Cc1ccc(O)cc1)NC(=O)[C@H](CC(N)=O)NC(=O)[C@H](CC(=O)O)NC(=O)[C@@H](NC(=O)[C@H](Cc1ccccc1)NC(=O)[C@@H](NC(=O)[C@H](C)NC(=O)[C@H](CC(=O)O)NC(=O)[C@H](CO)NC(=O)[C@@H](N)Cc1c[nH]cn1)C(C)C)[C@@H](C)O)[C@@H](C)O)C(C)C)C(=O)N[C@@H](CC(C)C)C(=O)N[C@@H](CC(N)=O)C(N)=O [VIP, Vasoactive intestinal peptide]	100	1e-08	100	weak relaxant
